Experimental data: patent US20250197374A1, “WEE1 DEGRADING COMPOUNDS AND USES THEREOF” (BRISTOL-MYERS SQUIBB COMPANY, priority 2023, published 2025)

Assays:
Format in all cases: cell-based
[1] = target: T1, WEE1 (Homo sapiens, UniProt P30291+Q96SW2); test: WEE1-ePL degradation assay (293T-LentiX, InCELL Hunter luminescence, 4 hr); conditions: for DC50: LentiX-HEK293T cells expressing WEE1-ePL, 4 hr incubation, read-out: 293T-LentiX WEE1-ePL Degradation 4 hr EC50; for 293T-LentiX WEE1-ePL Degradation 4 hr YMin (%): lower limit of fit, % of DMSO control signal remaining
T1 construct: C-terminal ePL-tagged (DiscoverX, Fremont, CA) full-length WEE1 expression construct; expressed in transfected cells; host or cells: LentiX-HEK293T (Invitrogen), lentivirally transduced; the cells also over-express GSPT1-GN
T1 sequence (P30291 whole entry): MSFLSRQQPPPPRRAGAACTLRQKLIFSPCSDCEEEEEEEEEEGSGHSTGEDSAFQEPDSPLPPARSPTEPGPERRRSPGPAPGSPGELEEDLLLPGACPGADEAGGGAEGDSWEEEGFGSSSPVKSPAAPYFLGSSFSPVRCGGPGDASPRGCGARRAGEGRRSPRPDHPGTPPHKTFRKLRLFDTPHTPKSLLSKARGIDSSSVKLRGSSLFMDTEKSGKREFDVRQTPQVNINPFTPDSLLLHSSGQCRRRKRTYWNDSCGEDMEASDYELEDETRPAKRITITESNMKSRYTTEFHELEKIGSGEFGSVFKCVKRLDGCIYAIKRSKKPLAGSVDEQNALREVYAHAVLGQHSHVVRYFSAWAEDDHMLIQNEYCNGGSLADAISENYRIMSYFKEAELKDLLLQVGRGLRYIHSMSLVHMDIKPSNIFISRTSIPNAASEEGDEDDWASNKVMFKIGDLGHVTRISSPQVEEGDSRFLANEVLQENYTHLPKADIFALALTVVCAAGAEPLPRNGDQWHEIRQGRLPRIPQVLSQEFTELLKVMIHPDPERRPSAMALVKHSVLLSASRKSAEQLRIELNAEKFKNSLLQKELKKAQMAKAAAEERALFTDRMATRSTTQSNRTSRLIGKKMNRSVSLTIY
T1 sequence (Q96SW2 whole entry): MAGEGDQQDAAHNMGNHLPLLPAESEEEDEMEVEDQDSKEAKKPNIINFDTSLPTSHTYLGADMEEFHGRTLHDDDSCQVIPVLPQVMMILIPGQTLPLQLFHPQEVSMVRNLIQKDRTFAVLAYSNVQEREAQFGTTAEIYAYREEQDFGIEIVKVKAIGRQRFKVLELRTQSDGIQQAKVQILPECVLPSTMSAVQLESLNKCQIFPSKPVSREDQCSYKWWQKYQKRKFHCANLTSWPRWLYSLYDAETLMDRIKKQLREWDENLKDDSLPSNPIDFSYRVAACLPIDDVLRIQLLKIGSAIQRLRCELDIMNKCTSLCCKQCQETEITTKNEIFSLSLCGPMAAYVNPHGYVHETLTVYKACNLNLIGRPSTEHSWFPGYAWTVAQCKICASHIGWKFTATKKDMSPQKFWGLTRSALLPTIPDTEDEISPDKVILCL
T1 sequence (Q16531 whole entry partner): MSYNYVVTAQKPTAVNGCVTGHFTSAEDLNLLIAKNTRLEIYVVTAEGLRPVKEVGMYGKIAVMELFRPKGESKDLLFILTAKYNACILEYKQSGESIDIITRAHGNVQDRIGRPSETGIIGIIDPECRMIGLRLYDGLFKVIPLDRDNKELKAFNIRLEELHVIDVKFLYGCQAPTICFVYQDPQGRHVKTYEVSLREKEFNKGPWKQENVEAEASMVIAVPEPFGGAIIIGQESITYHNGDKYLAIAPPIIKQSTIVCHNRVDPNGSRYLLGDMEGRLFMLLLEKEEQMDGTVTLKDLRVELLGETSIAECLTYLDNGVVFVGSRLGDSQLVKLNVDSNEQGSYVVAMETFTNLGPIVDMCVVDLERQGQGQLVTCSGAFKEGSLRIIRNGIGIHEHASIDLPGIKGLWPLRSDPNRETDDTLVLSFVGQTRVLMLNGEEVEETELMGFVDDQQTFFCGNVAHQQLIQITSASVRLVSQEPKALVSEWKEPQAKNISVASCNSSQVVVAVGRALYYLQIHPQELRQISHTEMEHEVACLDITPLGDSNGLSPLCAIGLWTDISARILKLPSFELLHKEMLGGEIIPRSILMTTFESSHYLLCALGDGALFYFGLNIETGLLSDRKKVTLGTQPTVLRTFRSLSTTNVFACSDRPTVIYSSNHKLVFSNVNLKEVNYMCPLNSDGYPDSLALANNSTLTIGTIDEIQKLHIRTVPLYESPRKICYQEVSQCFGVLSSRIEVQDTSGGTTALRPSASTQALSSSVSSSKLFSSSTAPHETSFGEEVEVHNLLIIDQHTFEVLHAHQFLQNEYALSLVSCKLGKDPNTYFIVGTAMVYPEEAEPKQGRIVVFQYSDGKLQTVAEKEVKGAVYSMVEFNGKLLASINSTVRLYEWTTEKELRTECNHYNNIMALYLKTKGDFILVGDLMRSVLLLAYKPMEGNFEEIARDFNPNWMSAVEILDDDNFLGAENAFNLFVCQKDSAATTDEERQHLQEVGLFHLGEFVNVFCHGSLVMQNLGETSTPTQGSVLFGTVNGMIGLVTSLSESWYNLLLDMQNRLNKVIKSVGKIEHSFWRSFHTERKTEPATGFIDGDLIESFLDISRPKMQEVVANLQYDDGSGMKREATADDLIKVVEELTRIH
Summary of the method: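 EC50 comes from a four-parameter logistic fit of ePL luminescence (InCELL Hunter), with DMSO control defining Ymax. Compounds ran as 10-point 3-fold dilutions from 1 or 10 µM for 4 h at 37 °C. Cells were HEK293T-LentiX with ePL-tagged full-length WEE1 and over-expressed Cereblon-resistant GSPT1-GN.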

[2] = test system: MDA-MB-231 cells; test: MDA-MB-231 cell proliferation assay (Cell-Titer-Glo, 120 hr); conditions: for EC50: Homo sapiens, MDA-MB-231, 120 h, read-out: MDA-MB 231 Cell Prolif. 120 hr EC50; for MDA-MB 231 Cell Prolif. 120 hr YMin (%): minimal percent of DMSO control observed
Summary of the method: (§1)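 Growth inhibition was read as CellTiter-Glo luminescence after 120 h at 37 °C in RPMI/10% FBS, with 400 MKN45 or 800 MDA-MB-231 cells seeded per well. Compounds were tested in 10-point half-log series starting at 1 or 10 uM (0.1% DMSO), in triplicate for MKN45 and duplicate for MDA-MB-231. EC50 values are four-parameter fits to %DMSO control, and Ymin-obs is the minimal observed %DMSO.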

[3] = test system: MKN45 cells; test: MKN45 cell proliferation assay (Cell-Titer-Glo, 120 hr); conditions: for EC50: Homo sapiens, MKN-45, 120 h, read-out: MKN45 Cell Prolif. 120 hr EC50; for MKN45 Cell Prolif. 120 hr YMin (%): minimal percent of DMSO control observed
Summary of the method: as §1

SMILES	DC50 [1]	293T-LentiX WEE1-ePL Degradation 4 hr YMin (%) [1]	EC50 [2]	EC50 [3]	MDA-MB 231 Cell Prolif. 120 hr YMin (%) [2]	MKN45 Cell Prolif. 120 hr YMin (%) [3]
COC[C@@H]1CN(Cc2cc(F)c3nc(N4C[C@H]5C[C@@H](C4)O5)ccc3c2)C[C@H]1Oc1ccc2c(c1)CN([C@H]1CCC(=O)NC1=O)C2=O [Example 47, (S)-3-(5-(((3S,4S)-1-((2-((1R,5S)-6-oxa-3-azabicyclo[3.1.1]heptan-3-yl)-8-fluoroquinolin-6-yl)methyl)-4-(methoxymethyl)pyrrolidin-3-yl)oxy)-1-oxoisoindolin-2-yl)piperidine-2,6-dione]	1 nM	28.7%	34 nM	1 nM	30.0%	9.8%
COC[C@@H]1CN(Cc2cc(F)c3nc(C4CC(C)(C)OC(C)(C)C4)ccc3c2)C[C@H]1Oc1ccc2c(c1)CN([C@H]1CCC(=O)NC1=O)C2=O [Example 53, (3S)-3-(5-{[(3S,4S)-1-{[8-fluoro-2-(2,2,6,6-tetramethyloxan-4-yl)quinolin-6-yl]methyl}-4-(methoxymethyl)pyrrolidin-3-yl]oxy}-1-oxo-2,3-dihydro-1H-isoindol-2-yl)piperidine-2,6-dione]		27.9%	8 nM		13.4%	10.5%
COC[C@@H]1CN(Cc2cc(F)c3nc(C45CCC(O)(CC4)CC5)ccc3c2)C[C@H]1Oc1ccc2c(c1)CN([C@H]1CCC(=O)NC1=O)C2=O [Example 55, (3S)-3-(5-{[(3S,4S)-1-[(8-fluoro-2-{4-hydroxybicyclo[2.2.2]octan-1-yl}quinolin-6-yl)methyl]-4-(methoxymethyl)pyrrolidin-3-yl]oxy}-1-oxo-2,3-dihydro-1H-isoindol-2-yl)piperidine-2,6-dione]		27.9%	16 nM		22.6%	10.9%
COC[C@@H]1CN(Cc2cc(F)c3nc(C45CC(C(C)(C)O)(C4)C5)ccc3c2)C[C@H]1Oc1ccc2c(c1)CN([C@H]1CCC(=O)NC1=O)C2=O [Example 56, (3S)-3-(5-{[(3S,4S)-1-({8-fluoro-2-[3-(2-hydroxypropan-2-yl)bicyclo[1.1.1]pentan-1-yl]quinolin-6-yl}methyl)-4-(methoxymethyl)pyrrolidin-3-yl]oxy}-1-oxo-2,3-dihydro-1H-isoindol-2-yl)piperidine-2,6-dione]		29.9%	19 nM		25.5%	10.0%
COC[C@@H]1CN(Cc2cc(F)c3nc(C(=O)N(C)C)ccc3c2)C[C@H]1Oc1ccc2c(c1)CN([C@H]1CCC(=O)NC1=O)C2=O [Example 58, 6-{[(3S,4S)-3-({2-[(3S)-2,6-dioxopiperidin-3-yl]-1-oxo-2,3-dihydro-1H-isoindol-5-yl}oxy)-4-(methoxymethyl)pyrrolidin-1-yl]methyl}-8-fluoro-N,N-dimethylquinoline-2-carboxamide]	5 nM	31.1%	213 nM	6 nM	28.1%	11.2%
COC[C@@H]1CN(Cc2cc(F)c3nc(N4CCCC4=O)ncc3c2)C[C@H]1Oc1ccc2c(c1)CN([C@H]1CCC(=O)NC1=O)C2=O [Example 61, (3S)-3-(5-{[(3S,4S)-1-{[8-fluoro-2-(2-oxopyrrolidin-1-yl)quinazolin-6-yl]methyl}-4-(methoxymethyl)pyrrolidin-3-yl]oxy}-1-oxo-2,3-dihydro-1H-isoindol-2-yl)piperidine-2,6-dione]	25 nM	29.3%	98 nM	9 nM	41.3%	12.0%

Further lines, with some results ahead:

DC50 [1]	293T-LentiX WEE1-ePL Degradation 4 hr YMin (%) [1]	EC50 [2]	EC50 [3]	SMILES	MDA-MB 231 Cell Prolif. 120 hr YMin (%) [2]	MKN45 Cell Prolif. 120 hr YMin (%) [3]
	22.9%	4 nM	1 nM	COC[C@@H]1CN(Cc2cc3ccc(N4CCOCC4)c(F)c3cn2)C[C@H]1Oc1ccc2c(c1)CN([C@H]1CCC(=O)NC1=O)C2=O [Example 48, (3S)-3-(5-{[(3S,4S)-1-{[8-fluoro-7-(morpholin-4-yl)isoquinolin-3-yl]methyl}-4-(methoxymethyl)pyrrolidin-3-yl]oxy}-1-oxo-2,3-dihydro-1H-isoindol-2-yl)piperidine-2,6-dione]	22.0%	7.8%
1 nM	29.1%	61 nM	1 nM	COC[C@@H]1CN(Cc2cc(F)c3nc(N4CCCC4=O)ccc3c2)C[C@H]1Oc1ccc2c(c1)CN([C@H]1CCC(=O)NC1=O)C2=O [Example 59, (3S)-3-(5-{[(3S,4S)-1-{[8-fluoro-2-(2-oxopyrrolidin-1-yl)quinolin-6-yl]methyl}-4-(methoxymethyl)pyrrolidin-3-yl]oxy}-1-oxo-2,3-dihydro-1H-isoindol-2-yl)piperidine-2,6-dione]	12.1%	10.7%
1 nM	27.4%	54 nM	3 nM	COC[C@@H]1CN(Cc2cc(F)c3nc(C4(O)CCOCC4)ccc3c2)C[C@H]1Oc1ccc2c(c1)CN([C@H]1CCC(=O)NC1=O)C2=O [Example 60, (3S)-3-(5-{[(3S,4S)-1-{[8-fluoro-2-(4-hydroxyoxan-4-yl)quinolin-6-yl]methyl}-4-(methoxymethyl)pyrrolidin-3-yl]oxy}-1-oxo-2,3-dihydro-1H-isoindol-2-yl)piperidine-2,6-dione]	33.7%	11.7%
4 nM	31.6%	100 nM	7 nM	COC[C@@H]1CN(Cc2cc(F)c3nc(C4(O)CCOCC4)ncc3c2)C[C@H]1Oc1ccc2c(c1)CN([C@H]1CCC(=O)NC1=O)C2=O [Example 62, (3S)-3-(5-{[(3S,4S)-1-{[8-fluoro-2-(4-hydroxyoxan-4-yl)quinazolin-6-yl]methyl}-4-(methoxymethyl)pyrrolidin-3-yl]oxy}-1-oxo-2,3-dihydro-1H-isoindol-2-yl)piperidine-2,6-dione]	33.0%	11.9%
3 nM	29.2%	42 nM	2 nM	COC[C@@H]1CN(Cc2cc(F)c3nc(N4CCC(O)CC4)ncc3c2)C[C@H]1Oc1ccc2c(c1)CN([C@H]1CCC(=O)NC1=O)C2=O [Example 63, (3S)-3-(5-{[(3S,4S)-1-{[8-fluoro-2-(4-hydroxypiperidin-1-yl)quinazolin-6-yl]methyl}-4-(methoxymethyl)pyrrolidin-3-yl]oxy}-1-oxo-2,3-dihydro-1H-isoindol-2-yl)piperidine-2,6-dione]	22.6%	9.2%
1 nM	28.5%	23 nM	2 nM	COC[C@@H]1CN(Cc2cc(F)c3nc(N4CCC(O)CC4)ccc3c2)C[C@H]1Oc1ccc2c(c1)CN([C@H]1CCC(=O)NC1=O)C2=O [Example 64, (S)-3-(5-(((3S,4S)-1-((8-fluoro-2-(4-hydroxypiperidin-1-yl)quinolin-6-yl)methyl)-4-(methoxymethyl)pyrrolidin-3-yl)oxy)-1-oxoisoindolin-2-yl)piperidine-2,6-dione]	17.1%	8.8%
	25.3%	5 nM	1 nM	COC[C@@H]1CN(Cc2ncc3cc(N4CCOCC4)ccc3c2F)C[C@H]1Oc1ccc2c(c1)CN([C@H]1CCC(=O)NC1=O)C2=O [Example 71, (3S)-3-(5-{[(3S,4S)-1-{[4-fluoro-7-(morpholin-4-yl)isoquinolin-3-yl]methyl}-4-(methoxymethyl)pyrrolidin-3-yl]oxy}-1-oxo-2,3-dihydro-1H-isoindol-2-yl)piperidine-2,6-dione]	26.6%	8.7%
1 nM	27.3%	14 nM	1 nM	COC[C@@H]1CN(Cc2cc(F)c3nc(N4CCC45CCOCC5)ccc3c2)C[C@H]1Oc1ccc2c(c1)CN([C@H]1CCC(=O)NC1=O)C2=O [Example 72, (3S)-3-(5-{[(3S,4S)-1-[(8-fluoro-2-{7-oxa-1-azaspiro [3.5]nonan-1-yl}quinolin-6-yl)methyl]-4-(methoxymethyl)pyrrolidin-3-yl]oxy}-1-oxo-2,3-dihydro-1H-isoindol-2-yl)piperidine-2,6-dione]	20.7%	9.3%
